How the values were obtained:
[1] = Octanol/water partition coefficient, log D of the compound; type: physicochemical
[2] = Metabolic stability in baboon blood at 2.5+/-0.8 mCi, iv after 10 mins; type: ADME, organism-based; conditions: papio anubis, read-out: Stability
[3] = Fraction unbound in baboon plasma; type: ADME, cell-free; conditions: papio anubis
[4] = Selectivity ratio of vasopressin V1b receptor over vasopressin V1a receptor
[5] = Biodistribution in baboon spleen at 2.5+/-0.8 mCi, iv followed by second dose administered > 2 hrs after initial dose measured per cc after 90 mins; type: ADME, organism-based; conditions: papio anubis, in vivo, 1.5 h
[6] = Biodistribution in baboon liver at 2.5+/-0.8 mCi, iv followed by second dose administered > 2 hrs after initial dose measured per cc after 90 mins; type: ADME, organism-based; conditions: papio anubis, in vivo, 1.5 h
[7] = Biodistribution in baboon lung at 2.5+/-0.8 mCi, iv followed by second dose administered > 2 hrs after initial dose measured per cc after 90 mins; type: ADME, organism-based; conditions: papio anubis, in vivo, 1.5 h
[8] = Biodistribution in baboon heart at 2.5+/-0.8 mCi, iv followed by second dose administered > 2 hrs after initial dose measured per cc after 90 mins; type: ADME, organism-based; conditions: papio anubis, in vivo, 1.5 h
[9] = Selectivity ratio of vasopressin V1b receptor over vasopressin V2 receptor
[10] = Selectivity ratio of vasopressin V1b receptor over oxytocin receptor

logD [1] | remaining at 10 min [2] | fraction unbound [3] | Ratio [4] | Drug uptake [5] | Drug uptake [6] | Drug uptake [7] | Drug uptake [8] | Ratio [9] | Ratio [10] | SMILES
3.22 | 50% | 0.0254 |  |  |  |  |  |  |  | COc1ccccc1[C@@]1(N2C[C@H](O)C[C@H]2C(=O)N(C)C)C(=O)N(S(=O)(=O)c2ccc(O[11CH3])cc2OC)c2ccc(Cl)cc21
 |  |  | 100 | 0.01 %ID | 0.1 %ID | 0.01 %ID | 0.01 %ID | 100 | 100 | COc1ccc(S(=O)(=O)N2C(=O)[C@@](c3ccccc3OC)(N3C[C@H](O)C[C@H]3C(=O)N(C)C)c3cc(Cl)ccc32)c(OC)c1 [NELIVAPTAN]

Reference: ChEMBL document CHEMBL1157117, “Synthesis of [11C]SSR149415 and preliminary imaging studies using positron emission tomography” (Bioorg Med Chem Lett, 2010)
